# Legend:
# Experiment in all cases: KiNativ profiling in human PBMCs
# Format in all cases: binding
# [1] = system: T1, BRAF; conditions: Lys2
# T1 construct: purchased ActivX Technologies (KiNativ)
# Procedure: (§1) Compounds were shipped to ActivX Technologies (San Diego, US) where LRRK2 target engagement and broad kinase profiling was performed using KiNativ™ procedures. Live cell treatment of human peripheral blood mononuclear cells (PBMCs) at two compound concentrations (1 µM and 0.1 µM) were used to evaluate and compare in vitro target engagement and kinase selectivity, respectively (see Supplementary File 1).
# [2] = system: T2, CDK2
# T2 construct: purchased ActivX Technologies (KiNativ)
# Procedure: as §1
# [3] = system: T3, CHK2
# T3 construct: purchased ActivX Technologies (KiNativ)
# Procedure: as §1
# [4] = system: T4, CaMK1a
# T4 construct: purchased ActivX Technologies (KiNativ)
# Procedure: as §1
# [5] = system: T5, CaMK2d; conditions: Lys1
# T5 construct: purchased ActivX Technologies (KiNativ)
# Procedure: as §1
# [6] = system: T6, DNAPK; conditions: ATP
# T6 construct: purchased ActivX Technologies (KiNativ)
# Procedure: as §1
# [7] = system: T7, GCN2
# T7 construct: purchased ActivX Technologies (KiNativ)
# Procedure: as §1
# [8] = system: T8, HPK1
# T8 construct: purchased ActivX Technologies (KiNativ)
# Procedure: as §1
# [9] = system: T9, IKKb
# T9 construct: purchased ActivX Technologies (KiNativ)
# Procedure: as §1
# [10] = system: T10, IKKe; conditions: Lys1
# T10 construct: purchased ActivX Technologies (KiNativ)
# Procedure: as §1
# [11] = system: T11, ILK
# T11 construct: purchased ActivX Technologies (KiNativ)
# Procedure: as §1
# [12] = system: T12, IRAK1; conditions: Lys2
# T12 construct: purchased ActivX Technologies (KiNativ)
# Procedure: as §1
# [13] = system: T13, IRAK4
# T13 construct: purchased ActivX Technologies (KiNativ)
# Procedure: as §1
# [14] = system: T14, KSR1; conditions: Activation Loop
# T14 construct: purchased ActivX Technologies (KiNativ)
# Procedure: as §1
# [15] = system: T15, LATS2
# T15 construct: purchased ActivX Technologies (KiNativ)
# Procedure: as §1
# [16] = system: T16, LRRK2
# T16 construct: purchased ActivX Technologies (KiNativ)
# Procedure: as §1
# [17] = system: T17, MAP2K6
# T17 construct: purchased ActivX Technologies (KiNativ)
# Procedure: as §1
# [18] = system: T18, MAP3K1; conditions: Lys2
# T18 construct: purchased ActivX Technologies (KiNativ)
# Procedure: as §1
# [19] = system: T19, MAP3K2; conditions: Lys1
# T19 construct: purchased ActivX Technologies (KiNativ)
# Procedure: as §1
# [20] = system: T20, MAST3; conditions: Lys2
# T20 construct: purchased ActivX Technologies (KiNativ)
# Procedure: as §1
# [21] = system: T21, MST3
# T21 construct: purchased ActivX Technologies (KiNativ)
# Procedure: as §1
# [22] = system: MST4,YSK1; conditions: Lys2
# Procedure: as §1
# [23] = system: T22, NEK4; conditions: Lys2
# T22 construct: purchased ActivX Technologies (KiNativ)
# Procedure: as §1
# [24] = system: T23, NuaK2; conditions: Lys1
# T23 construct: purchased ActivX Technologies (KiNativ)
# Procedure: as §1
# [25] = system: T24, PFTAIRE1
# T24 construct: purchased ActivX Technologies (KiNativ)
# Procedure: as §1
# [26] = system: T25, PIP5K3; conditions: ATP
# T25 construct: purchased ActivX Technologies (KiNativ)
# Procedure: as §1
# [27] = system: T26, PKN1
# T26 construct: purchased ActivX Technologies (KiNativ)
# Procedure: as §1
# [28] = system: T27, PRPK; conditions: ATP Loop
# T27 construct: purchased ActivX Technologies (KiNativ)
# Procedure: as §1
# [29] = system: T28, RIPK3; conditions: Lys2
# T28 construct: purchased ActivX Technologies (KiNativ)
# Procedure: as §1
# [30] = system: T29, RSK3 domain1; conditions: Lys2
# T29 construct: RSK3 domain1; purchased ActivX Technologies (KiNativ)
# Procedure: as §1
# [31] = system: T30, SYK
# T30 construct: purchased ActivX Technologies (KiNativ)
# Procedure: as §1
# [32] = system: T31, TAK1; conditions: Lys2
# T31 construct: purchased ActivX Technologies (KiNativ)
# Procedure: as §1
# [33] = system: T32, TLK1
# T32 construct: purchased ActivX Technologies (KiNativ)
# Procedure: as §1
# [34] = system: Wnk1,Wnk2; conditions: ATP Loop
# Procedure: as §1
# [35] = system: T33, ZAP70
# T33 construct: purchased ActivX Technologies (KiNativ)
# Procedure: as §1
# [36] = system: p70S6K,p70S6Kb; conditions: ATP Loop
# Procedure: as §1
smiles,measurement,setting,value
Cn1cc(-c2c[nH]c3ncnc(N4CCOCC4)c23)cc1C#N [PFE-360],% Inhibition,[1]; 0.1µM,-13.9%
same,% Inhibition,[1]; 1µM,-14.3%
same,% Inhibition,"[2]; 0.1µM, Lys1",-5.8%
same,% Inhibition,"[2]; 0.1µM, Lys2",4.2%
same,% Inhibition,"[2]; 1µM, Lys1",-5.5%
same,% Inhibition,"[2]; 1µM, Lys2",-2.9%
same,% Inhibition,"[3]; 0.1µM, Lys1",3.6%
same,% Inhibition,"[3]; 0.1µM, Lys2",-6.7%
same,% Inhibition,"[3]; 1µM, Lys1",-2.7%
same,% Inhibition,"[3]; 1µM, Lys2",-12.6%
same,% Inhibition,"[4]; 0.1µM, Lys1",-2.5%
same,% Inhibition,"[4]; 0.1µM, Lys2",-12.3%
same,% Inhibition,"[4]; 1µM, Lys1",3.5%
same,% Inhibition,"[4]; 1µM, Lys2",-25%
same,% Inhibition,[5]; 0.1µM,0.1%
same,% Inhibition,[5]; 1µM,-3%
same,% Inhibition,"[6]; 0.1µM, peptide EHPFLVKGGEDLR",0.3%
same,% Inhibition,"[6]; 0.1µM, peptide KGGSWIQEINVAEK",-1.9%
same,% Inhibition,"[6]; 1µM, peptide EHPFLVKGGEDLR",-12.5%
same,% Inhibition,"[6]; 1µM, peptide KGGSWIQEINVAEK",-4.9%
same,% Inhibition,"[7]; 0.1µM, Lys1",3.5%
same,% Inhibition,"[7]; 0.1µM, Lys2",-3.6%
same,% Inhibition,"[7]; 1µM, Lys1",-13.3%
same,% Inhibition,"[7]; 1µM, Lys2",2.5%
same,% Inhibition,"[8]; 0.1µM, Lys1",-22.3%
same,% Inhibition,"[8]; 0.1µM, Lys2",1.2%
same,% Inhibition,"[8]; 1µM, Lys1",7.8%
same,% Inhibition,"[8]; 1µM, Lys2",0%
same,% Inhibition,"[9]; 0.1µM, Lys1",-5%
same,% Inhibition,"[9]; 0.1µM, Lys2",-6%
same,% Inhibition,"[9]; 1µM, Lys1",-10.5%
same,% Inhibition,"[9]; 1µM, Lys2",-31.2%
same,% Inhibition,[10]; 0.1µM,2.3%
same,% Inhibition,[10]; 1µM,7.7%
same,% Inhibition,"[11]; 0.1µM, Lys1",4.8%
same,% Inhibition,"[11]; 0.1µM, Protein Kinase Domain",-4%
same,% Inhibition,"[11]; 1µM, Lys1",6.2%
same,% Inhibition,"[11]; 1µM, Protein Kinase Domain",26%
same,% Inhibition,[12]; 0.1µM,-6.1%
same,% Inhibition,[12]; 1µM,-11.8%
same,% Inhibition,"[13]; 0.1µM, Lys1",4.1%
same,% Inhibition,"[13]; 0.1µM, Lys2",8%
same,% Inhibition,"[13]; 1µM, Lys1",-0.3%
same,% Inhibition,"[13]; 1µM, Lys2",1.4%
same,% Inhibition,[14]; 0.1µM,6.8%
same,% Inhibition,[14]; 1µM,8.2%
same,% Inhibition,"[15]; 0.1µM, Lys1",-10.2%
same,% Inhibition,"[15]; 0.1µM, Lys2",5.5%
same,% Inhibition,"[15]; 1µM, Lys1",16.6%
same,% Inhibition,"[15]; 1µM, Lys2",-0.4%
same,% Inhibition,"[16]; 0.1µM, Lys1",>90%
same,% Inhibition,"[16]; 0.1µM, Lys2",93.8%
same,Inhibition,"[16]; 0.1µM, Lys2",full inhibition
same,% Inhibition,"[16]; 1µM, Lys1",>90%
same,% Inhibition,"[16]; 1µM, Lys2",96.7%
same,% Inhibition,"[17]; 0.1µM, Lys1",-18%
same,% Inhibition,"[17]; 0.1µM, Lys2",14.6%
same,% Inhibition,"[17]; 1µM, Lys1",1.8%
same,% Inhibition,"[17]; 1µM, Lys2",6.2%
same,% Inhibition,[18]; 0.1µM,7%
same,% Inhibition,[18]; 1µM,-26.4%
same,% Inhibition,[19]; 0.1µM,-14.1%
same,% Inhibition,[19]; 1µM,-24.4%
same,% Inhibition,[20]; 0.1µM,0.2%
same,% Inhibition,[20]; 1µM,-2.7%
same,% Inhibition,"[21]; 0.1µM, Lys1",-15.8%
same,% Inhibition,"[21]; 0.1µM, Lys2",-6.1%
same,% Inhibition,"[21]; 1µM, Lys1",-21.2%
same,% Inhibition,"[21]; 1µM, Lys2",-16.2%
same,% Inhibition,[22]; 0.1µM,-0.2%
same,% Inhibition,[22]; 1µM,-16.6%
same,% Inhibition,[23]; 0.1µM,9.8%
same,% Inhibition,[23]; 1µM,-8.3%
same,% Inhibition,[24]; 0.1µM,14.4%
same,% Inhibition,[24]; 1µM,4.6%
same,% Inhibition,"[25]; 0.1µM, Lys1",1.9%
same,% Inhibition,"[25]; 0.1µM, Lys2",-4%
same,% Inhibition,"[25]; 1µM, Lys1",-2%
same,% Inhibition,"[25]; 1µM, Lys2",-1.5%
same,% Inhibition,[26]; 0.1µM,-6.1%
same,% Inhibition,[26]; 1µM,-15.9%
same,% Inhibition,"[27]; 0.1µM, Lys1",-4.7%
same,% Inhibition,"[27]; 0.1µM, Lys2",-3.5%
same,% Inhibition,"[27]; 1µM, Lys1",-10.8%
same,% Inhibition,"[27]; 1µM, Lys2",-25.9%
same,% Inhibition,[28]; 0.1µM,2.6%
same,% Inhibition,[28]; 1µM,8.1%
same,% Inhibition,[29]; 0.1µM,16.1%
same,% Inhibition,[29]; 1µM,27.3%
same,% Inhibition,[30]; 0.1µM,5.5%
same,% Inhibition,[30]; 1µM,8.1%
same,% Inhibition,"[31]; 0.1µM, Activation Loop",1.9%
same,% Inhibition,"[31]; 0.1µM, Lys1",0.1%
same,% Inhibition,"[31]; 1µM, Activation Loop",-4.4%
same,% Inhibition,"[31]; 1µM, Lys1",-13%
same,% Inhibition,[32]; 0.1µM,-3.5%
same,% Inhibition,[32]; 1µM,-20%
same,% Inhibition,"[33]; 0.1µM, Lys1",-0.5%
same,% Inhibition,"[33]; 0.1µM, Lys2",0%
same,% Inhibition,"[33]; 1µM, Lys1",3.9%
same,% Inhibition,"[33]; 1µM, Lys2",-13.2%
same,% Inhibition,[34]; 0.1µM,-5.4%
same,% Inhibition,[34]; 1µM,-15.3%
same,% Inhibition,"[35]; 0.1µM, Activation Loop",-0.7%
same,% Inhibition,"[35]; 0.1µM, Lys1",0.4%
same,% Inhibition,"[35]; 1µM, Activation Loop",-9.8%
same,% Inhibition,"[35]; 1µM, Lys1",-5.9%
same,% Inhibition,[36]; 0.1µM,-0.2%
same,% Inhibition,[36]; 1µM,13.2%
